The record followed here is ChEMBL document CHEMBL4316591, “Optimization of Pan-Pim Kinase Activity and Oral Bioavailability Leading to Diaminopyrazole (GDC-0339) for the Treatment of Multiple Myeloma” (J Med Chem, 2019).

SMILES strings stand for the structures. In brackets after ≈: the same amount, converted by molar mass. A value given as a limit tells only on which side of the number the result lay.

The term half-life denotes the time needed for the level to fall by half in the phase considered. As a reminder, the bioavailability is dose-corrected exposure relative to a reference, in per cent. The term solubility (thermodynamic) denotes the concentration in solution at equilibrium with solid. What is called clearance is the rate of elimination divided by the concentration.

The nature of data set [1]: Half life in mouse at 1 mg/kg, iv by LC-MS/MS analysis. It is filed as ADME, organism-based. Conditions: in vivo.
Data set [2] can be described thus: Half life in cynomolgus monkey at 0.5 mg/kg by LC-MS/MS analysis. The conditions noted are these: in vivo.
Data set [3] is described as follows: Oral bioavailability in cynomolgus monkey at 100 mg/kg by LC-MS/MS analysis. It is filed as ADME, organism-based, Macaca fascicularis. Conditions: in vivo.
A short description of data set [4]: Volume of distribution at steady state in Sprague-Dawley rat at 1 mg/kg, iv by LC-MS/MS analysis. It is filed as ADME, organism-based. Conditions: in vivo, read-out: Vdss.
The nature of a further data set: physchem. The conditions noted are these: buffer, pH 6.5.
Data set [5] in a line: Total clearance in cynomolgus monkey at 0.5 mg/kg, iv by LC-MS/MS analysis. It is filed as ADME, organism-based, Macaca fascicularis. The conditions noted are these: in vivo.
A short description of data set [6]: in vivo. Conditions: Sprague-Dawley, rat, iv, 1 mg/kg.
Data set [7] is described as follows: Oral bioavailability in Sprague-Dawley rat at 100 mg/kg by LC-MS/MS analysis. The conditions noted are these: in vivo. It is filed as ADME, organism-based.
Data set [8] in a line: Oral bioavailability in mouse at 100 mg/kg by LC-MS/MS analysis. Conditions: in vivo. It is filed as ADME, organism-based.
Data set [9] is described as follows: Oral bioavailability in cynomolgus monkey at 1 mg/kg by LC-MS/MS analysis. It counts as ADME, organism-based, Macaca fascicularis. Conditions: in vivo.
A short description of data set [10]: Volume of distribution at steady state in cynomolgus monkey at 0.5 mg/kg by LC-MS/MS analysis. The conditions noted are these: in vivo, read-out: Vdss.
Data set [11] can be described thus: Half life in Sprague-Dawley rat at 1 mg/kg, iv by LC-MS/MS analysis. It is filed as ADME, organism-based. The conditions noted are these: in vivo.
The nature of data set [12]: Volume of distribution at steady state in mouse at 1 mg/kg, iv by LC-MS/MS analysis. It is filed as ADME, organism-based. The conditions noted are these: in vivo, read-out: Vdss.
The nature of data set [13]: in vivo. The conditions noted are these: Sprague-Dawley, rat, po, 5 mg/kg.
Data set [14] is described as follows: Total clearance in mouse at 1 mg/kg, iv by LC-MS/MS analysis. It is filed as ADME, organism-based. The conditions noted are these: in vivo.
The nature of data set [15]: Oral bioavailability in mouse at 5 mg/kg by LC-MS/MS analysis by LC-MS/MS analysis. It counts as ADME, organism-based. The conditions noted are these: in vivo.

Consider `Cn1ncc(NC(=O)c2nc(-c3c(F)cccc3F)sc2N)c1N1CC[C@@H](N)[C@H](F)CC1`, for which the half-life was 0.9 h in data set [1], 1.8 h in [2] and 1.8 h in [11]. Besides, the bioavailability came out at 60% in data set [3]; 28% in [7]; 34% in [8]; 35% in [9]; 33% in the data set “in vivo [13]”; 11% in [15]. The Vd came to 0.9 L/kg in data set [4], 5 L/kg in data set [10] and 6.8 L/kg in [12]. The solubility (thermodynamic) in the data set “physchem” amounted to 67 µM (≈ 31.2 µg/mL). Besides, the clearance in data set [5] is 2.04 L/h/kg; in “in vivo [6]” it was 0.48 L/h/kg; in [14], 8.1 L/h/kg.

`Cn1ncc(NC(=O)c2nc(-c3c(F)cccc3F)sc2N)c1[C@@]12CC[C@@H](N)[C@@H](CC1)O2` came in with a thermodynamic solubility in “physchem” of 16 µM (≈ 7.37 µg/mL). In the data set “in vivo [6]”, this molecule showed a clearance of 0.18 L/h/kg. Moreover, in “in vivo [13]”, the bioavailability came to 24%.

Consider `Cn1ncc(NC(=O)c2nc(-c3c(F)cccc3F)sc2N)c1N1CCC[C@H](NCC(F)(F)F)CC1`, for which the thermodynamic solubility in the data set “physchem” was 1 µM (≈ 0.53 µg/mL).

As to `Cn1ncc(NC(=O)c2nc(-c3c(F)cccc3F)sc2N)c1N1CCC[C@H](NCC(F)F)CC1`, the thermodynamic solubility in the data set “physchem” stood at 1 µM (≈ 0.512 µg/mL).

`CO[C@H]1C[C@H](N)CCN(c2c(NC(=O)c3nc(-c4c(F)cccc4F)sc3N)cnn2C)C1`: the solubility (thermodynamic) in the data set “physchem” amounted to 62 µM (≈ 29.6 µg/mL). Further, in “in vivo [6]”, the clearance stood at 0.12 L/h/kg. This molecule gave a bioavailability in the data set “in vivo [13]” of 3%.

With `Cn1ncc(NC(=O)c2nc(-c3c(F)cccc3F)sc2N)c1C1CCC(N)C(F)CC1` (stereo not drawn), the solubility (thermodynamic) in the data set “physchem” was determined as 88 µM (≈ 40.9 µg/mL).

In the data set “physchem”, `Cn1ncc(NC(=O)c2nc(-c3c(F)cccc3F)sc2N)c1N1CCCC(O)CC1` (stereo not drawn) showed a thermodynamic solubility of less than 1 µM. The molecule also had a clearance in the data set “in vivo [6]” of 0.42 L/h/kg. This molecule came in with a bioavailability in “in vivo [13]” of 38%.
